Measurements as given in patent US10858357B2, “Water-soluble myosin 2 inhibitors for the treatment of neurological, neuropathic or psychiatric diseases” (PARIS SCIENCES ET LETTRES-QUARTIER LATIN, priority 2016, dated 2020).
In brackets after ≈: the same amount, converted by molar mass. Like-named read-outs stand apart in the source and are kept apart here.

Legend:
[1] = tested on: HeLa Kyoto H2B-mCherry eGFP-α-tubulin cells; assay: Inhibition of cytokinesis / cell growth of HeLa cells; assay type: cell-based, human; conditions: 25 μM, 3rd day
Procedure: For cell growth assays, HeLa Kyoto H2B-mCherry eGFP-α-tubulin cells were grown on an eight-chambered Lab-Tek borosilicate cover glass system, with the initial cell concentration of 100,000 cells/ml. As soon as the cells attached to the surface, they were treated with 0, 2, 5, 10, 25 or 50 μM concentrations of neurelaxin-A. Cells were grown for three days in the presence of the indicated inhibitor concentrations and cell numbers were quantified each day. The final vol/vol % of DMSO in all experiments was 0.1. Data analysis was carried out by Fiji software. On the third day of the experiment, multinuclear cells were visualized by using a Zeiss LSM 710 with a Plan Apo 20×/0.8 objective.
Another important phenotypic effect of non-muscle myosin 2 inhibition is the blocking of cytokinesis and consequently, the increasing number of multinucleated cells and the relatively low total cell number in human cancer cell cultures (Straight et al. Science, 2003, 299 (5613), pp 1743-1747). Therefore, the ratio of multinuclear cells and total cell number of HeLa cells was measured in time at different concentrations of neurelaxin-A (FIGS. 3F and 3G).
Cells incubated in different concentrations of the inhibitors were counted on each day for three days. […] In parallel with this phenomenon, the ratio of multinuclear cells increased with increasing inhibitor concentration.

neurons = assay: Oxidative stress resistance (H2O2) of neurons; assay type: cell-based; conditions: 30 μM H2O2
Procedure: Hydrogen Peroxide (H2O2) is used for generating reactive oxygen species and consequently, leading to oxidative stress and neuronal loss.
In this experiment, the neurons were first incubated with 30 μM of H2O2 or not (witness sample). Then, the neurons were treated with DMSO solutions with or without Neurelaxin-A.

[2] = biological target: T1, Dictyostelium discoideum myosin 2 motor domain (DdMD) (Dictyostelium discoideum, UniProt P08799); assay: Steady state MgATPase, NADH-coupled assay, DdMD; assay type: biochemical; conditions: for IC50: 20° C.
T1 construct: Dictyostelium discoideum myosin 2 motor domain (DdMD)
T1 sequence (P08799 86-759 limits assumed): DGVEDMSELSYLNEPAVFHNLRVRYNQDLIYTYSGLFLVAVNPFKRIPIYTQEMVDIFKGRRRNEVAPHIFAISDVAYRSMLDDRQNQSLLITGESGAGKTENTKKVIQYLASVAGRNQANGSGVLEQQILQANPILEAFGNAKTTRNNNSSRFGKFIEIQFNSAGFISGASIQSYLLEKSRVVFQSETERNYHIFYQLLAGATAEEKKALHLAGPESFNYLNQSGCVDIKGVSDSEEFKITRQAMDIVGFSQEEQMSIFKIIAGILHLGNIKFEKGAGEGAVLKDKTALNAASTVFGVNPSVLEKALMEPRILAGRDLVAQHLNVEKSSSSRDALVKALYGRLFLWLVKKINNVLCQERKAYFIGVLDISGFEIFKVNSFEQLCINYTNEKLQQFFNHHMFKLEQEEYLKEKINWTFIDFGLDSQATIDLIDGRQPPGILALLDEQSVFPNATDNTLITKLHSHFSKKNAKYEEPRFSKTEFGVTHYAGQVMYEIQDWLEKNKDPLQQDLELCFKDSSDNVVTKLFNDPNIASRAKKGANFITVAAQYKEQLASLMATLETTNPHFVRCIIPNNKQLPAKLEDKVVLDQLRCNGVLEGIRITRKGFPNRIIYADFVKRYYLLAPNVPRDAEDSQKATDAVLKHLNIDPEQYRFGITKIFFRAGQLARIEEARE
Procedure: MgATPase activities of 500 nM (for basal ATPase) or 50 nM (for actin activated ATPase) SkS1 (rabbit skeletal S1 fragment) 23 and 1 μM (for basal ATPase) or 300 nM (for actin activated ATPase) DdMD were measured at increasing concentrations of neurelaxin-A in the absence or in the presence of 45 μM actin for SkS1 or 15 μM actin for DdMD. Measurements were carried out using a pyruvate kinase/lactate dehydrogenase coupled assay (NADH-coupled assay) (Kovacs M. et al., J. Biol. Chem. 2004, 279 (34), pp 35557-35563) at 25° C. or 20° C. in case of SkS1 or DdMD, respectively. Myosin and actin together with the indicated concentration of the inhibitor were pre-incubated for 5 minutes at room temperature and the measurements were initiated with 1 mM ATP. Data were corrected for background ATPase activity of actin. G-actin was prepared accordingly from rabbit skeletal muscle (Spudich, J. A. & Watt, S.; The Journal of Biological Chemistry 246, 1971, pp 4866-4871) and polymerized by 2 mM MgCl2 for 1 hour at room temperature. Measurements were performed in low salt buffer containing 5 mM HEPES, 2 mM MgCl2, 0.1 mM EGTA and 2 mM DTT at pH 7.2 or assay buffer containing 20 mM HEPES, 40 mM NaCl, 4 mM MgCl2 at pH 7.3 for basal ATPase activity measurements with DdMD.
The basal and actin activated ATPase activities of rabbit skeletal muscle myosin S1 (SkS1) and Dictyostelium discoideum myosin 2 motor domain (DdMD) were measured at increasing concentrations of neurelaxin-A (FIGS. 3A and 3B).

spinal cord injury = assay: Spinal cord complete section, BBB locomotor scoring; assay type: in vivo, rat; conditions: 10 mM in 10% DMSO/90% aCSF at injury site; from day 7; non-treated stays under 3
Procedure: In this experiment, a complete section of the spinal cord on animals was carried out. Then, neurelaxin A administration was carried out at the injury site, 5-10 min after the injury was performed. This neurelaxin-A administration was carried out via a diluted solution of 10 mM of neurelaxin A in a 10% DMSO/90% aCSF (artificial cerebrospinal fluid) solution, leading to an orange bright precipitate that is slowly soluble into the injury site. Finally, a BBB (Basso, Beattie and Bresnahan) analysis is performed in order to study the sequence of functional locomotor recovery patterns. The scale (0-21) represents sequential recovery stages and categorizes combinations of rat joint movement, hindlimb movements, stepping, forelimb and hind limbcoordination, trunk position and stability, paw placement and tail position.
According to this test, any drug treatment which may increase the BBB scores may be considered neuroprotective in animal models.
In this experiment, treated animals (n=3) were undistinguishable from non-treated animals (n=3). The BBB scoring scale ranges from 0 to 21.

[3] = Water solubility and solution stability in assay buffer; assay type: physicochemical; conditions: for solution stability at saturation concentration: 0.1 or 1 vol/vol % DMSO in assay buffer; for solubility: pH 7.3, aqueous buffer, kinetic from dmso stock, read-out: saturation concentration (solubility)
Procedure: The solubility and the solution stability of neurelaxin-A, were measured in 0.1 and 1 vol/vol % DMSO at room temperature.
500 μM inhibitor solutions were prepared in assay buffer (40 mM NaCl, 4 mM MgCl2, 20 mM HEPES pH 7.3) containing 0.1 or 1 vol/vol % DMSO.
After 0, 5, 25, 60 and 240 minutes, the samples were centrifuged for 1 minute. Absorption spectra of the supernatants were recorded and the concentrations of the dissolved inhibitors were determined using the extinction coefficient ε^o427=6860 M^−1cm^−1 (FIG. 2A).

## Cc1ccc2c(c1)C(=O)C1(O)CCN(c3ccc(N)cc3)C1=N2 (centres unmarked) [Neurelaxin-A, 1-(4-aminophenyl)-3a-hydroxy-6-methyl-3,3a-dihydro-1H-pyrrolo[2,3-b]quinolin-4(2H)-one]
[1]
  effect on cytokinesis / cell number: completely inhibited cytokinesis
neurons
  neuronal survival and axon maintenance under oxidative stress: increased
[2]; actin activated
  inhibition reached, actin activated ATPase of DdMD: 80%
[2]; actin activated, 300 nM DdMD, 15 μM actin, read-out: IC50 actin activated ATPase activity of DdMD
  IC50: 6.7 ± 1.9 µM
[2]; basal
  inhibition reached, basal ATPase of DdMD: 90%
[2]; basal, 1 μM DdMD, read-out: IC50 basal ATPase of DdMD
  IC50: 6.6 ± 2 µM
Spinal cord injury
  BBB scoring: significant increasing of BBB scoring
[3]
  solution stability at saturation concentration: remained constant for 4 hours
[3]; listed as neurelaxin-A
  solution stability at saturation concentration: stable for several days
[3]; assay buffer with 0.1 vol/vol % DMSO, 0.1 vol/vol % DMSO in assay buffer pH 7.3, room temperature
  solubility: ~298 µM (≈ 91.6 µg/mL)
[3]; assay buffer with 1 vol/vol % DMSO, 1 vol/vol % DMSO in assay buffer pH 7.3, room temperature
  solubility: ~426 µM (≈ 131 µg/mL)
